Values joined by “and” are separate entries in the source; they are usually repeats but may differ in a detail not shown here. Equal entries are not always repeated.
Tests used:
[1] = synthetic melanin, 0.06 to 25.0μM, 37°C, 1 hour, ± SEM
[2] = target: T1, FGFR1 (Homo sapiens, UniProt P11362); assay: HotSpot kinase screen; type: biochemical; conditions: 10μM ATP
T1 construct: purchased Reaction Biology Corporation (contract assay)

[3] = target: T2, FGFR3 (Homo sapiens, UniProt P22607); assay: HotSpot kinase screen; type: biochemical; conditions: 1uM TKI, 10μM ATP
T2 construct: purchased Reaction Biology Corporation (contract assay)

[4] = target: T3, FGFR2 (Homo sapiens, UniProt P21802); assay: HotSpot kinase screen; type: biochemical; conditions: 10μM ATP
T3 construct: purchased Reaction Biology Corporation (contract assay)
Experimental: (§1) Measurement of kinase activity was performed by Reaction Biology Corporation (Reaction Biology Corporation, Malvern, PA), using the HotSpot™ assay. The screen focused on RTKs reported in the literature to play a major role in the regulation of angiogenesis (VEGFR1, VEGFR2, and VEGFR3; fibroblast growth factor receptor [FGFR] 1, 2, and 3; and platelet-derived growth factor receptor beta [PDGFRβ]) as well as an RTK essential for maintaining blood vessel stability (TIE2). For the profiling, specific kinase/substrate pairs and required cofactors were prepared in a reaction buffer (20mM Hepes [pH 7.5], 10mM MgCl2, 1mM EGTA, 0.02% Brij35, 0.02 mg/mL BSA, 0.1mM Na3VO4, 2mM DTT, 1% dimethyl sulfoxide [DMSO]). TKI compounds were diluted to 10μM and 1μM concentrations for the screens and after addition to the reaction buffer incubated for 20 minutes, followed by the addition of a mixture of ATP (Sigma, St. Louis, MO) and ^33P-ATP (Perkin Elmer, Waltham, MA) to a final ATP concentration of 10μM. Reactions were carried out at room temperature for 2 hours, followed by spotting of the reactions onto P81 ion exchange filter paper (Whatman Inc., Piscataway, NJ). Unbound phosphate was removed by extensive washing of the filters. […] Kinome TREEspot images representing levels of inhibition were prepared using Kinome Mapper (https://www.reactionbiology.com/resources/tools/kinase-mapper).

[5] = target: T4, VEGFR3 (Homo sapiens, UniProt P35916); assay: HotSpot kinase screen; type: biochemical; conditions: 10μM ATP
T4 construct: purchased Millipore Corporation (Dundee, Scotland) or Reaction Biology Corporation (contract assay)
T4 sequence (P35916 25-1363): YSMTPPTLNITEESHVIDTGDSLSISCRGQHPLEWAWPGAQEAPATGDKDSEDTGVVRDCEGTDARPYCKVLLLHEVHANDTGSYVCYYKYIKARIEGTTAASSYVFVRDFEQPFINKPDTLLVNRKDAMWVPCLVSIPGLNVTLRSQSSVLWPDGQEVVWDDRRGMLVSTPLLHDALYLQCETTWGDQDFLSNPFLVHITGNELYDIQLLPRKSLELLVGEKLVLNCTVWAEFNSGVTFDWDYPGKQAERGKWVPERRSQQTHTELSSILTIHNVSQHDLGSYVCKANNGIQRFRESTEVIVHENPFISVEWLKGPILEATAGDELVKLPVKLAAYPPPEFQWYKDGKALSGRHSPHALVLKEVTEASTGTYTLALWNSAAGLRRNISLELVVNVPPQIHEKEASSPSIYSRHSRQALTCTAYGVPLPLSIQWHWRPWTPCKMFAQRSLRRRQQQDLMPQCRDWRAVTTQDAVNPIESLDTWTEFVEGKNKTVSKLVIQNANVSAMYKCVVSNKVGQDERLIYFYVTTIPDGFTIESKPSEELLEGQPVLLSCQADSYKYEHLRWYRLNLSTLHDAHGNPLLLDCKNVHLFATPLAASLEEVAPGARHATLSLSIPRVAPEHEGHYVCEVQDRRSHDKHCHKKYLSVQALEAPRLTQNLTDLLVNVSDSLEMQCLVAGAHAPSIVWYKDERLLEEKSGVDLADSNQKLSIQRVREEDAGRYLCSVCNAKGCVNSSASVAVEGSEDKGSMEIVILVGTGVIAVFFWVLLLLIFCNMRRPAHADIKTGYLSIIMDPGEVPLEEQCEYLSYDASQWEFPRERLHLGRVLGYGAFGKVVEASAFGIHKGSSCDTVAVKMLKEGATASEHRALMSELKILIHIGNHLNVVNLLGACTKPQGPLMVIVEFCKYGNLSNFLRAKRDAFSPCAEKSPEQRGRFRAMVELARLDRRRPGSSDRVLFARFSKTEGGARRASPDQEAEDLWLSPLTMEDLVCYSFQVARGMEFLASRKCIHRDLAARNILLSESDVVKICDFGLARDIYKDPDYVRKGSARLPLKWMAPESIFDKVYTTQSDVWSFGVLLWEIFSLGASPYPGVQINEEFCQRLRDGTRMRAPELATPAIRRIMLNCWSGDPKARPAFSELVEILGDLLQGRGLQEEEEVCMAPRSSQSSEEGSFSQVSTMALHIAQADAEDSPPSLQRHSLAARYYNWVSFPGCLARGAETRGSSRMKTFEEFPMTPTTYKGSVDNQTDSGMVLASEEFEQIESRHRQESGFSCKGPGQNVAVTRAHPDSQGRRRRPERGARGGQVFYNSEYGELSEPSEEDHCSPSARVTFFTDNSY
Experimental: as §1

[6] = target: T5, PDGFRβ (Homo sapiens, UniProt P09619); assay: HotSpot kinase screen; type: biochemical; conditions: 10μM ATP
T5 construct: purchased Reaction Biology Corporation (contract assay)
T5 sequence (P09619 33-1106): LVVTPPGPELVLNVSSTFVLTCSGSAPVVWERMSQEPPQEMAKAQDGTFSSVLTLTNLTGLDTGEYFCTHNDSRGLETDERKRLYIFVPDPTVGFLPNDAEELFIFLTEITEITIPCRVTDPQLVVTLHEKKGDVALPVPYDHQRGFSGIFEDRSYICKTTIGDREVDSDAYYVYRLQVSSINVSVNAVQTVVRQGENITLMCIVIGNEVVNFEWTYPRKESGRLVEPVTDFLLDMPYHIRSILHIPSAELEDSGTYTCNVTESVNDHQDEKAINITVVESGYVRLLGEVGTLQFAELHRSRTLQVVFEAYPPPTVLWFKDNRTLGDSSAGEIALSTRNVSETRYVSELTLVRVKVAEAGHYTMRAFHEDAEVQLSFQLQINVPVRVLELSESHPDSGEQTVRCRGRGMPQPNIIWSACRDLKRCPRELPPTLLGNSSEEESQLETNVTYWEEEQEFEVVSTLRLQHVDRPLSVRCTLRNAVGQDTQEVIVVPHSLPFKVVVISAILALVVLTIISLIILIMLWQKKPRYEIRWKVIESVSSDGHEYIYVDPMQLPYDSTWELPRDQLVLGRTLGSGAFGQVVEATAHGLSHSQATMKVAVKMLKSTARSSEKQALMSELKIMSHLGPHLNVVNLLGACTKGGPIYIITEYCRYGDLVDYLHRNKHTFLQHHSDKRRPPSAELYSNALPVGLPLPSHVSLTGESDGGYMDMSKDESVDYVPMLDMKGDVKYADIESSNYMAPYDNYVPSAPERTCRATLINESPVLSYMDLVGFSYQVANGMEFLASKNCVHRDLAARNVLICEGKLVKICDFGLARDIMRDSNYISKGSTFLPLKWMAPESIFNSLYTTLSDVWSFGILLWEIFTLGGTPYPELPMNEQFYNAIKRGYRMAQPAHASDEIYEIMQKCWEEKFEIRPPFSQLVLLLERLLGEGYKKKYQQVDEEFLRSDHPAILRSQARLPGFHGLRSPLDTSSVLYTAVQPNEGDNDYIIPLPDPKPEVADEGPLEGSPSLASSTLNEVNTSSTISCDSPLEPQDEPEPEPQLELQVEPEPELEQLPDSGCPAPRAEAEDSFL

[7] = target: T4, VEGFR3; assay: Ten-dose IC50 measurement; type: biochemical; conditions: 10μM ATP
[8] = test system: VEGF-A–induced sprouting of HUVECs; assay: HUVEC spheroid sprouting assay; type: cell-based, human; conditions: for cumulative sprout length per spheroid (CSL), mean: 25 ng/mL VEGF-165, 24 hours
Experimental: The three TKI compounds were tested by Reaction Biology Europe (Freiburg, Germany) in the spheroid-based cellular angiogenesis assay to determine their effect on VEGF-A–induced sprouting of HUVECs. Primary HUVECs from pooled donors at passage 3 to 4 (PromoCell, Heidelberg, Germany) were grown in endothelial cell growth and basal medium (ECGM/ECBM, PromoCell). Test compounds were prepared as 100-fold concentrated stock solutions in DMSO and pre-diluted in basal medium. HUVECs were stimulated using 25 ng/mL VEGF-165 (Reaction Biology Europe, Freiburg, Germany) pre-diluted in basal medium.
Spheroids were prepared as described by pipetting 400 HUVECs in a hanging drop on plastic dishes to allow overnight spheroid aggregation. Fifty HUVEC spheroids were seeded in 0.9 mL of a collagen gel and pipetted into individual wells of a 24-well plate to allow polymerization. Test compounds and VEGF-165 were added after 30 minutes by pipetting 100 μL of a ten-fold concentrated solution onto the polymerized gel. Plates were incubated at 37°C for 24 hours, and cells were fixed by adding 4% paraformaldehyde (Roth, Karlsruhe, Germany). Sprouting intensity of HUVEC spheroids treated with the test samples was quantitated using an image analysis system to determine the cumulative sprout length (CSL) per spheroid. Images of single spheroids were captured using an inverted microscope and the digital imaging software NIS-Elements BR 3.0 (Nikon). Spheroid pictures were uploaded to Wimasis (www.wimasis.com) for image analysis. The CSL of each spheroid was determined using the imaging analysis tool WimSprout. The mean CSL of ten randomly selected spheroids was analyzed as an individual data point.

[9] = target: T6, VEGFR1 (Homo sapiens, UniProt P17948); assay: Ten-dose IC50 measurement; conditions: 10μM ATP
T6 sequence (P17948 27-1338): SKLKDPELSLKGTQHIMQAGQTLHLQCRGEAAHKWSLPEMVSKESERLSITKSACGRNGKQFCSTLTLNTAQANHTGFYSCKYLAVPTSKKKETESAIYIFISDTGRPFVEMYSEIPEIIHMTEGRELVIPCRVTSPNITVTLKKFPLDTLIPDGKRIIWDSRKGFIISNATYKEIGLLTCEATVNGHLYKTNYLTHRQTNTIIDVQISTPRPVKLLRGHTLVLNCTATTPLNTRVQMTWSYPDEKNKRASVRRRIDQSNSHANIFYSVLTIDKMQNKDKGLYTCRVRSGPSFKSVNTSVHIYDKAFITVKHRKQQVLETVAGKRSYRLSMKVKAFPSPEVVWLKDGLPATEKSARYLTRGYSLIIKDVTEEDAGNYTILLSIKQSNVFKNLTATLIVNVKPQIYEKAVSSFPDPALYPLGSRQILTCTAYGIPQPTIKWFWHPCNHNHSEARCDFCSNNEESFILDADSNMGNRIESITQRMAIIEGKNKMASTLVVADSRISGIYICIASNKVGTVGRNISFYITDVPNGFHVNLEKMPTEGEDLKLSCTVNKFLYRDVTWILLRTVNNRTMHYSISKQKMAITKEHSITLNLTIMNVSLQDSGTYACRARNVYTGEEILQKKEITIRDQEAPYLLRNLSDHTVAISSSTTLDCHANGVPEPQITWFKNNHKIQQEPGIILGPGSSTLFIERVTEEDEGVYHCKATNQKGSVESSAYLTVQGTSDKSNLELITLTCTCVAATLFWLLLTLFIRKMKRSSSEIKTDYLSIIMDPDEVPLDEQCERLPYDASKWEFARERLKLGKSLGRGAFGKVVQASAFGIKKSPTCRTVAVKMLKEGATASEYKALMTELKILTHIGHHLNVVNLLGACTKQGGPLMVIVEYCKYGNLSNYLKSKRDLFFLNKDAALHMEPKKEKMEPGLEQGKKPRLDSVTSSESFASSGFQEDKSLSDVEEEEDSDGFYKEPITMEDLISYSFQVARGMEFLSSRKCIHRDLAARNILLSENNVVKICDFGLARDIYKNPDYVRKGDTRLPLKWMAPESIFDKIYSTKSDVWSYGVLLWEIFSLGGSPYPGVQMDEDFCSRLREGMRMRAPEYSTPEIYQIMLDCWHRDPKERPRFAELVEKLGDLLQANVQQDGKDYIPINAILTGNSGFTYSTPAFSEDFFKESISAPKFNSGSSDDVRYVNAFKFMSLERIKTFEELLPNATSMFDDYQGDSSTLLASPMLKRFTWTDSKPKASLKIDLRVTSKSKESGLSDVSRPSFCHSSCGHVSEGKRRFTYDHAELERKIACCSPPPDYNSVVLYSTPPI

[10] = target: T7, TIE2 (Homo sapiens, UniProt Q02763); assay: Ten-dose IC50 measurement; conditions: 10μM ATP
T7 sequence (Q02763 23-1124): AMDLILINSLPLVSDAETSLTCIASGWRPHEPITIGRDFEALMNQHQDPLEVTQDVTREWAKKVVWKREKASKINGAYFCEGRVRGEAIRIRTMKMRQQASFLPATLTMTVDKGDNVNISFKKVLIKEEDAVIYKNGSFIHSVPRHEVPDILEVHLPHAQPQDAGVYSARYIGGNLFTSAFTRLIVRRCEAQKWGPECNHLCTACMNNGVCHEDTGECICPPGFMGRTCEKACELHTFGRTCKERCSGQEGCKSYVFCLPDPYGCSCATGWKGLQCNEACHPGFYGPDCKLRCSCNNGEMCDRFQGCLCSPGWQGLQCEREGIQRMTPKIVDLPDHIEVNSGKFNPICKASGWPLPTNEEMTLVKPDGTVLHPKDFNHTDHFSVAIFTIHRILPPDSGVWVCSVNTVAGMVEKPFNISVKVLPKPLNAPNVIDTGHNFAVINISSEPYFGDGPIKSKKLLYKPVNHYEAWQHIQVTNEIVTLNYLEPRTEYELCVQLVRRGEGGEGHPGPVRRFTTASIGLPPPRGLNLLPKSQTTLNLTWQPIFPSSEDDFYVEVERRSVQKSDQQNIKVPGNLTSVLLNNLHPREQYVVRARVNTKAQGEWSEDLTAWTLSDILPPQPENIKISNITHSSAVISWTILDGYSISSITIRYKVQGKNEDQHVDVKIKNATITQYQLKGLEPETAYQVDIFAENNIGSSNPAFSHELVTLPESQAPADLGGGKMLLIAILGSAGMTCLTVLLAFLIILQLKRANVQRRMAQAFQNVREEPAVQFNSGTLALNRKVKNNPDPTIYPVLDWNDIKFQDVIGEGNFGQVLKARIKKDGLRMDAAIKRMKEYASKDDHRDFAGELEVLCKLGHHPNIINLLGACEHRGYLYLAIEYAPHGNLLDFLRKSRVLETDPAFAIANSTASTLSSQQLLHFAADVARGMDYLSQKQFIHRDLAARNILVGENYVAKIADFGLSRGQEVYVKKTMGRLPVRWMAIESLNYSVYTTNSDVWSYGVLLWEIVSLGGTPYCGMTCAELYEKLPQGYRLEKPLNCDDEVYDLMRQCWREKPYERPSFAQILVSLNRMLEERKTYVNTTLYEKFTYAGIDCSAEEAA

[11] = target: T7, TIE2; assay: HotSpot kinase screen; type: biochemical; design: purchased Reaction Biology Corporation (contract assay); conditions: 1uM TKI, 10μM ATP
[12] = test system: VEGF-induced angiogenesis on the CAM; assay: Gelatin sponge chick chorioallantoic membrane (CAM) assay
[13] = target: T6, VEGFR1; assay: HotSpot kinase screen; type: biochemical; design: purchased Millipore Corporation (Dundee, Scotland) or Reaction Biology Corporation (contract assay); conditions: 10μM ATP
Experimental: as §1

## CCN(CC)CCCC(C)Nc1ccnc2cc(Cl)ccc12 (stereo not drawn) [Chloroquine]
[1]
  Kd: 3.06 ± 0.6 µM

## CCN(CC)CCNC(=O)c1c(C)[nH]c(/C=C2\C(=O)Nc3ccc(F)cc32)c1C [Sunitinib]
[2]; 1uM TKI
  Avg % Inhibition FGFR1: 61.61%
[2]; 10uM TKI
  Avg % Inhibition FGFR1: 93.09%
[3]
  Avg % Inhibition FGFR3: 79.29%
[4]; 1uM TKI
  Avg % Inhibition FGFR2: 77.42%
[4]; 10uM TKI
  Avg % Inhibition FGFR2: 98.03%
[5]; 1uM TKI
  Avg % Inhibition VEGFR3: 86.7%
[5]; 10uM TKI
  Avg % Inhibition VEGFR3: 99.18%
[6]; 1uM TKI
  Avg % Inhibition PDGFRb: 92.22%
[6]; 10uM TKI
  Avg % Inhibition PDGFRb: 97.19%
[7]; 1.00E-05 M TKI
  %Activity VEGFR3: 1.67%
[7]; 1.11E-06 M TKI
  %Activity VEGFR3: 9.53%
[7]; 1.23E-07 M TKI
  %Activity VEGFR3: 31.11%
[7]; 1.37E-08 M TKI
  %Activity VEGFR3: 63.61%
[7]; 1.52E-09 M TKI
  %Activity VEGFR3: 80.77%
[7]; 3.33E-06 M TKI
  %Activity VEGFR3: 3.43%
[7]; 3.70E-07 M TKI
  %Activity VEGFR3: 18.20%
[7]; 4.12E-08 M TKI
  %Activity VEGFR3: 47.10%
[7]; 4.57E-09 M TKI
  %Activity VEGFR3: 73.23%
[7]; 5.08E-10 M TKI
  %Activity VEGFR3: 86.68%
[8]; 1.00E-05 M TKI
  cumulative sprout length per spheroid (CSL), mean: 99
[8]; 1.00E-06 M TKI
  cumulative sprout length per spheroid (CSL), mean: 298
[8]; 1.00E-07 M TKI
  cumulative sprout length per spheroid (CSL), mean: 387
[8]; 3.00E-06 M TKI
  cumulative sprout length per spheroid (CSL), mean: 173
[8]; 3.00E-07 M TKI
  cumulative sprout length per spheroid (CSL), mean: 230
[8]; 3.00E-08 M TKI
  cumulative sprout length per spheroid (CSL), mean: 893
[8]; highest test concentration of 1×10^–5M
  vessel sprouting (representative spheroid images): zero vessel sprouting
[9]; 1.00E-05 M TKI
  %Activity VEGFR1: 2.53%
[9]; 1.11E-06 M TKI
  %Activity VEGFR1: 20.58%
[9]; 1.37E-08 M TKI
  %Activity VEGFR1: 78.18%
[9]; 1.52E-09 M TKI
  %Activity VEGFR1: 84.25%
[9]; 3.33E-06 M TKI
  %Activity VEGFR1: 8.53%
[9]; 3.70E-07 M TKI
  %Activity VEGFR1: 35.25%
[9]; 4.12E-08 M TKI
  %Activity VEGFR1: 63.70%
[9]; 4.57E-09 M TKI
  %Activity VEGFR1: 84.35%
[9]; 5.08E-10 M TKI
  %Activity VEGFR1: 93.32%
[10]; 1.00E-05 M TKI
  %Activity TIE2: 44.88%
[10]; 1.11E-06 M TKI
  %Activity TIE2: 93.41%
[10]; 1.37E-08 M TKI
  %Activity TIE2: 98.62%
[10]; 1.52E-09 M TKI
  %Activity TIE2: 99.65%
[10]; 3.33E-06 M TKI
  %Activity TIE2: 74.48%
[10]; 3.70E-07 M TKI
  %Activity TIE2: 96.23%
[10]; 4.12E-08 M TKI
  %Activity TIE2: 95.60%
[10]; 4.57E-09 M TKI
  %Activity TIE2: 97.42%
[10]; 5.08E-10 M TKI
  %Activity TIE2: 95.09%
[11]
  Avg % Inhibition TIE2: 5.03%
[11]; listed as sunitinib
  Avg % Inhibition TIE2: 5%
[12]; TKI at 200 x VEGFR2 IC50
  Angiogenesis - Vessel number, Mean: 7
[12]; TKI at 200 x VEGFR2 IC50, one value per egg
  Angiogenesis - Vessel number, individual egg: 8.67 and 8.33 and 1.67 and 6.67 and 3.33
[12]; TKI at 200× VEGFR2 IC50 dose
  reduction of the number of blood vessels perfusing the sponges vs negative control: 49.3%
[12]; TKI at VEGFR2 IC50 dose, score 0-3
  Angiogenesis - Vessel thickness score, Mean: 1.8
[12]; TKI at VEGFR2 IC50 dose, score 0-3, one value per egg
  Angiogenesis - Vessel thickness score, individual egg: 3 and 0.67 and 2 and 2.33 and 1.33 and 1
[13]; 1uM TKI
  Avg % Inhibition VEGFR1: 77.03%
[13]; 10uM TKI
  Avg % Inhibition VEGFR1: 93.14%

— publication PMC11149885 (PLOS ONE, 2024)
